This passage reports IC50 results from US8138168B1 (Takeda Pharmaceutical Company Limited, priority 2007, dated 2012).

The structures appear in SMILES notation.

In this assay the target is T1, Recombinant human renin (Homo sapiens, UniProt P00797).
T1 construct: isolate the active form (residues 67-406); made in house; host or cells: FreeStyle 293-F cells (transient expression of pcDNA3.1(+)/hREN)
T1 sequence (P00797 67-406): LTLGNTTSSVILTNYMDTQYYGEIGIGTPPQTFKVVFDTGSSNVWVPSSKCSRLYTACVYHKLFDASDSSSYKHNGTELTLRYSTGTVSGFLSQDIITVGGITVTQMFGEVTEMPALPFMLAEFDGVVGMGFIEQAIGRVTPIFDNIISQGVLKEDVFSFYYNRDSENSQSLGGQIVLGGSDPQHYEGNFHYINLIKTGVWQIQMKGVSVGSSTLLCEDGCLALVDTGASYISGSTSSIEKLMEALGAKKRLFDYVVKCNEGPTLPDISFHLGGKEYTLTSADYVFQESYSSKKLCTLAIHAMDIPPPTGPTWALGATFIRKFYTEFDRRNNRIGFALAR
In words: In vitro enzymatic activity assay of renin inhibitors (fluorogenic peptide substrate). In kind it is biochemical. As to conditions: read-out: IC50 of Exemplified Compounds Against Renin. In a few lines: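 Recombinant human renin (3 nM final) pre-incubated 10 min at 37 °C with compounds in pH 7.4 Hepes/EDTA/DTT/0.1 mg/mL BSA/Brij35 buffer (optionally plus 2% BSA), 5% DMSO final; fluorogenic QXL520/HiLyteFluo488 peptide substrate added.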
As for `COCCCn1c([C@@H]2CCCN(C(=O)C[C@H](N)Cc3ccc(-c4ccc(C(=O)NCCO)cc4Cl)cc3)C2)nc2ccccc21` [Compound 192, 4′-((R)-2-amino-4-((R)-3-(1-(3-methoxypropyl)-1H-benzo[d]imidazol-2-yl)piperidin-1-yl)-4-oxobutyl)-2-chloro-N-(2-hydroxyethyl)biphenyl-4-carboxamide], the IC50 (usually the concentration that inhibits the measured activity by half) was less than 100 nM.
The same measure for `COCCCn1c([C@@H]2CCCN(C(=O)C[C@H](N)Cc3ccc(-c4ccc(C(=O)NCCOC)cc4Cl)cc3)C2)nc2ccccc21` [Compound 193, 4′-((R)-2-amino-4-((R)-3-(1-(3-methoxypropyl)-1H-benzo[d]imidazol-2-yl)piperidin-1-yl)-4-oxobutyl)-2-chloro-N-(2-methoxyethyl)biphenyl-4-carboxamide]: less than 100 nM; for `COCCCn1c([C@@H]2CCCN(C(=O)C[C@H](N)Cc3ccc(-c4ccc(C(=O)NCCO)nc4)cc3)C2)nc2ccccc21` [Compound 194, 5-(4-((R)-2-Amino-4-((R)-3-(1-(3-methoxypropyl)-1H-benzo[d]imidazol-2-yl)piperidin-1-yl)-4-oxobutyl)phenyl)-N-(2-hydroxyethyl)picolinamide]: less than 100 nM; for `COCCCn1c([C@@H]2CCCN(C(=O)C[C@H](N)Cc3ccc(-c4ccc(C(=O)NCCOC)nc4)cc3)C2)nc2ccccc21` [Compound 195, 5-(4-((R)-2-amino-4-((R)-3-(1-(3-methoxypropyl)-1H-benzo[d]imidazol-2-yl)piperidin-yl)-4-oxobutyl)phenyl)-N-(2-methoxyethyl)picolinamide]: less than 100 nM.
The same measure for `COCCCn1c([C@@H]2CCCN(C(=O)C[C@H](N)Cc3ccc(-c4ccc(NC(=O)COC)cc4)cc3)C2)nc2ccccc21` [Compound 197, N-(4′-((R)-2-amino-4-((R)-3-(1-(3-methoxypropyl)-1H-benzo[d]imidazol-2-yl)piperidin-1-yl)-4-oxobutyl)biphenyl-4-yl)-2-methoxyacetamide]: less than 100 nM.
As to `COCCCn1c([C@@H]2CCCN(C(=O)C[C@H](N)Cc3ccc(-c4ccc(NC(=O)CO)cc4)cc3)C2)nc2ccccc21` [Compound 198, N-(4′-((R)-2-Amino-4-((R)-3-(1-(3-methoxypropyl)-1H-benzo[d]imidazol-2-yl)piperidin-1-yl)-4-oxobutyl)biphenyl-4-yl)-2-hydroxyacetamide], the IC50 was less than 100 nM.
The same measure for `COCCCn1c([C@@H]2CCCN(C(=O)C[C@H](N)Cc3ccc(-c4ccc(NC(=O)C(C)(C)O)cc4)cc3)C2)nc2ccccc21` [Compound 199, N-(4′-((R)-2-amino-4-((R)-3-(1-(3-methoxypropyl)-1H-benzo[d]imidazol-2-yl)piperidin-1-yl)-4-oxobutyl)biphenyl-4-yl)-2-hydroxy-2-methylpropanamide]: less than 100 nM.
As for `CCOc1nc(-c2ccc(C[C@@H](N)CC(=O)N3CCC[C@@H](c4nc5ccccc5n4CCCOC)C3)cc2)cs1` [Compound 200, (R)-3-amino-4-(4-(2-ethoxythiazol-4-yl)phenyl)-1-((R)-3-(1-(3-methoxypropyl)-1H-benzo[d]imidazol-2-yl)piperidin-1-yl)butan-1-one], the concentration for half-maximal inhibition (IC50) is less than 100 nM.
Consider `COCCCn1c([C@@H]2CCCN(C(=O)C[C@H](N)Cc3ccc(-c4csc(OC)n4)cc3)C2)nc2ccccc21` [Compound 201, (R)-3-amino-1-((R)-3-(1-(3-methoxypropyl)-1H-benzo[d]imidazol-2-yl)piperidin-1-yl)-4-(4-(2-methoxythiazol-4-yl)phenyl)butan-1-one], for which the 50% inhibitory concentration (IC50) is less than 100 nM.
The same measure for `COCCCn1c([C@@H]2CCCN(C(=O)C[C@H](N)Cc3ccc(-c4csc(C(C)C)n4)cc3)C2)nc2ccccc21` [Compound 202, (R)-3-amino-4-(4-(2-isopropylthiazol-4-yl)phenyl)-1-((R)-3-(1-(3-methoxypropyl)-1H-benzo[d]imidazol-2-yl)piperidin-1-yl)butan-1-one]: less than 100 nM; for `COCCCn1c([C@@H]2CCCN(C(=O)C[C@H](N)Cc3ccc(C(=O)NC4CCCCC4)cc3)C2)nc2ccccc21` [Compound 203, 4-((R)-2-amino-4-((R)-3-(1-(3-methoxypropyl)-1H-benzo[d]imidazol-2-yl)piperidin-1-yl)-4-oxobutyl)-N-cyclohexylbenzamide]: 100 to 1000 nM; for `COCCCn1c([C@@H]2CCCN(C(=O)C[C@H](N)Cc3ccc(-c4cnc(C)n4C)cc3)C2)nc2ccccc21` [Compound 204, (R)-3-amino-4-(4-(1,2-dimethyl-1H-imidazol-5-yl)phenyl)-1-((R)-3-(1-(3-methoxypropyl)-1H-benzo[d]imidazol-2-yl)piperidin-1-yl)butan-1-one]: 100 to 1000 nM.
The same measure for `COCCCn1c([C@@H]2CCCN(C(=O)C[C@H](N)Cc3ccc(-c4cn(C)c(=O)n(C)c4=O)cc3)C2)nc2ccccc21` [Compound 205, 5-(4-((R)-2-amino-4-((R)-3-(1-(3-methoxypropyl)-1H-benzo[d]imidazol-2-yl)piperidin-1-yl)-4-oxobutyl)phenyl)-1,3-dimethylpyrimidine-2,4(1H,3H)-dione]: less than 100 nM; for `COCCCn1c([C@@H]2CCCN(C(=O)C[C@H](N)Cc3ccc(-c4ccc(-n5c(C)n[nH]c5=O)cc4)cc3)C2)nc2ccccc21` [Compound 206, 4-(4′-((R)-2-amino-4-((R)-3-(1-(3-methoxypropyl)-1H-benzo[d]imidazol-2-yl)piperidin-1-yl)-4-oxobutyl)biphenyl-4-yl)-3-methyl-1H-1,2,4-triazol-5(4H)-one]: less than 100 nM; for `COCCCn1c([C@@H]2CCCN(C(=O)C[C@H](N)Cc3ccc(-n4ccccc4=O)cc3)C2)nc2ccccc21` [Compound 207]: 100 to 1000 nM.
The same measure for `COCCCn1c([C@@H]2CCCN(C(=O)C[C@H](N)Cc3ccc(-n4ccnc4)cc3)C2)nc2ccccc21` [Compound 208, (R)-4-(4-(1H-imidazol-1-yl)phenyl)-3-amino-1-((R)-3-(1-(3-methoxypropyl)-1H-benzo[d]imidazol-2-yl)piperidin-1-yl)butan-1-one]: less than 100 nM.
As to `COCCCn1c([C@@H]2CCCN(C(=O)C[C@H](N)Cc3ccc(N4CCCC4=O)cc3)C2)nc2ccccc21` [Compound 209, 1-(4-((R)-2-amino-4-((R)-3-(1-(3-methoxypropyl)-1H-benzo[d]imidazol-2-yl)piperidin-1-yl)-4-oxobutyl)phenyl)pyrrolidin-2-one], the 50% inhibitory concentration (IC50) lay within 100 to 1000 nM.
The result for `COCCCn1c([C@@H]2CCCN(C(=O)C[C@H](N)Cc3ccc(-n4ccc(=O)n(C)c4=O)cc3)C2)nc2ccccc21` [Compound 210, 1-(4-((R)-2-amino-4-((R)-3-(1-(3-methoxypropyl)-1H-benzo[d]imidazol-2-yl)piperidin-1-yl)-4-oxobutyl)phenyl)-3-methylpyrimidine-2,4(1H,3H)-dione] reads 100 to 1000 nM.
The result for `COCCCn1c([C@@H]2CCCN(C(=O)C[C@H](N)Cc3ccc(-n4c(=O)oc5ccccc54)cc3)C2)nc2ccccc21` [Compound 211] reads less than 100 nM.
For `COCCCn1c([C@@H]2CCCN(C(=O)C[C@H](N)Cc3ccc(-n4c(=O)[nH]c5ccccc54)cc3)C2)nc2ccccc21` [Compound 212], the concentration for half-maximal inhibition (IC50) is less than 100 nM.
Consider `COCCCn1c([C@@H]2CCCN(C(=O)C[C@H](N)Cc3ccc(N4CCOCC4=O)cc3)C2)nc2ccccc21` [Compound 213], for which the IC50 was 100 to 1000 nM.
`COCCCn1c([C@@H]2CCCN(C(=O)C[C@H](N)Cc3ccc(-n4c(=O)n(CCOC)c5ccccc54)cc3)C2)nc2ccccc21` [Compound 214, 1-(4-((R)-2-amino-4-((R)-3-(1-(3-methoxypropyl)-1H-benzo[d]imidazol-2-yl)piperidin-1-yl)-4-oxobutyl)phenyl)-3-(2-methoxyethyl)-1H-benzo[d]imidazol-2(3H)-one]: the 50% inhibitory concentration (IC50) is less than 100 nM.
The result for `COCCCn1c([C@@H]2CCCN(C(=O)C[C@H](N)Cc3ccc(-n4c(=O)[nH]c5cc(C)c(C)cc54)cc3)C2)nc2ccccc21` [Compound 219, 1-(4-((R)-2-amino-4-((R)-3-(1-(3-methoxypropyl)-1H-benzo[d]imidazol-2-yl)piperidin-1-yl)-4-oxobutyl)phenyl)-5,6-dimethyl-1H-benzo[d]imidazol-2(3H)-one] reads less than 100 nM; that for `COCCCn1c([C@@H]2CCCN(C(=O)C[C@H](N)Cc3ccc(-n4c(=O)n(C)c5ccccc54)cc3)C2)nc2ccccc21` [Compound 220, 1-(4-((R)-2-amino-4-((R)-3-(1-(3-methoxypropyl)-1H-benzo[d]imidazol-2-yl)piperidin-1-yl)-4-oxobutyl)phenyl)-3-methyl-1H-benzo[d]imidazol-2(3H)-one], less than 100 nM.
The same measure for `CCCn1c(=O)n(-c2ccc(C[C@@H](N)CC(=O)N3CCC[C@@H](c4nc5ccccc5n4CCCOC)C3)cc2)c2ccccc21` [Compound 221, 1-(4-((R)-2-amino-4-((R)-3-(1-(3-methoxypropyl)-1H-benzo[d]imidazol-2-yl)piperidin-1-yl)-4-oxobutyl)phenyl)-3-propyl-1H-benzo[d]imidazol-2(3H)-one]: less than 100 nM; for `COCCCn1c([C@@H]2CCCN(C(=O)C[C@H](N)Cc3ccc(-n4c(=O)n(CCO)c5ccccc54)cc3)C2)nc2ccccc21` [Compound 222, 1-(4-((R)-2-amino-4-((R)-3-(1-(3-methoxypropyl)-1H-benzo[d]imidazol-2-yl)piperidin-1-yl)-4-oxobutyl)phenyl)-3-(2-hydroxyethyl)-1H-benzo[d]imidazol-2(3H)-one]: less than 100 nM.
